These results are taken from ChEMBL document CHEMBL1154963, “Part 2: Structure-activity relationship (SAR) investigations of fused pyrazoles as potent, selective and orally available inhibitors of p38alpha mitogen-activated protein kinase” (Bioorg Med Chem Lett, 2010).

Common to all, as to assay type: ADME, organism-based
Data set [1] in a line: Clearance in Sprague-Dawley rat at 2 mg/kg, iv. Also noted: dose 2 mg/kg, route intravenous. Conditions: in vivo.
Data set [2] in a line: Oral bioavailability in Sprague-Dawley rat at 2 mg/kg. Conditions: in vivo.
Data set [3] can be described thus: AUC (0 to infinity) in Sprague-Dawley rat at 2 mg/kg, po. Particulars: plasma. Also noted: time infinity, dose 2 mg/kg, route oral.
A short description of data set [4]: Half life in Sprague-Dawley rat at 2 mg/kg, iv. Details: dose 2 mg/kg, route intravenous. Conditions: in vivo.
Data set [5] is described as follows: Volume of distribution at steady state in Sprague-Dawley rat at 2 mg/kg, iv. Also noted: dose 2 mg/kg, route intravenous. Conditions: in vivo, read-out: Vdss.

With `Cc1nnc(Nc2cc(C(=O)NC3CC3)ccc2Cl)c2cnn(-c3c(F)cccc3F)c12`, the clearance in data set [1] was 7.83 mL/min/kg. The bioavailability in data set [2] turned out to be 91%. The compound further showed a total exposure AUC(0-inf) in data set [3] of 3880 ng·h/mL. The compound further showed a half-life in data set [4] of 2.2 h. For the same compound, the Vd in data set [5] stood at 1.4 L/kg.
In data set [1], `Cc1ccc(C(=O)NC2CC2)cc1Nc1nncc2c1cnn2-c1c(F)cccc1F` had a clearance of 9.67 mL/min/kg. In data set [2], the bioavailability was 19%. In data set [3], this compound showed an area under the curve AUC(0-inf) of 671 ng·h/mL. In data set [4], the half-life was 2.8 h. The Vd in data set [5] worked out at 1.6 L/kg.
For `O=C(NC1CC1)c1ccc(Cl)c(Nc2nncc3c2cnn3-c2c(F)cccc2F)c1`, the clearance in data set [1] is 3.67 mL/min/kg. Further, the bioavailability in data set [2] amounted to 75%. This compound registered an AUC(0-inf) in data set [3] of 6830 ng·h/mL. The half-life in data set [4] was 3.6 h. Moreover, the Vd in data set [5] is 1.1 L/kg.
The matching figures for `O=C(NC1CC1)c1ccc(Cl)c(Nc2nncc3c2cnn3-c2ccc(F)cc2F)c1`: 2.67 mL/min/kg, 53%, 6550 ng·h/mL, 3.5 h and 0.89 L/kg.
